Source: EP0684822B1, “CARBOCYCLIC DEOXYGUANOSINE ANALOGS FOR THE TREATMENT OF VIRAL INFECTIONS” (SOUTHERN RESEARCH INSTITUTE, priority 1993, dated 1994)

Key:
[1] = molecular target: T1, DNA polymerase γ (Homo sapiens, UniProt P54098); assay: Inhibition of [3H]dGTP incorporation into DNA by DNA polymerase γ; type: biochemical; settings: incorporation of 1 µM [3H]dGTP into DNA
T1 sequence (P54098 26-1239): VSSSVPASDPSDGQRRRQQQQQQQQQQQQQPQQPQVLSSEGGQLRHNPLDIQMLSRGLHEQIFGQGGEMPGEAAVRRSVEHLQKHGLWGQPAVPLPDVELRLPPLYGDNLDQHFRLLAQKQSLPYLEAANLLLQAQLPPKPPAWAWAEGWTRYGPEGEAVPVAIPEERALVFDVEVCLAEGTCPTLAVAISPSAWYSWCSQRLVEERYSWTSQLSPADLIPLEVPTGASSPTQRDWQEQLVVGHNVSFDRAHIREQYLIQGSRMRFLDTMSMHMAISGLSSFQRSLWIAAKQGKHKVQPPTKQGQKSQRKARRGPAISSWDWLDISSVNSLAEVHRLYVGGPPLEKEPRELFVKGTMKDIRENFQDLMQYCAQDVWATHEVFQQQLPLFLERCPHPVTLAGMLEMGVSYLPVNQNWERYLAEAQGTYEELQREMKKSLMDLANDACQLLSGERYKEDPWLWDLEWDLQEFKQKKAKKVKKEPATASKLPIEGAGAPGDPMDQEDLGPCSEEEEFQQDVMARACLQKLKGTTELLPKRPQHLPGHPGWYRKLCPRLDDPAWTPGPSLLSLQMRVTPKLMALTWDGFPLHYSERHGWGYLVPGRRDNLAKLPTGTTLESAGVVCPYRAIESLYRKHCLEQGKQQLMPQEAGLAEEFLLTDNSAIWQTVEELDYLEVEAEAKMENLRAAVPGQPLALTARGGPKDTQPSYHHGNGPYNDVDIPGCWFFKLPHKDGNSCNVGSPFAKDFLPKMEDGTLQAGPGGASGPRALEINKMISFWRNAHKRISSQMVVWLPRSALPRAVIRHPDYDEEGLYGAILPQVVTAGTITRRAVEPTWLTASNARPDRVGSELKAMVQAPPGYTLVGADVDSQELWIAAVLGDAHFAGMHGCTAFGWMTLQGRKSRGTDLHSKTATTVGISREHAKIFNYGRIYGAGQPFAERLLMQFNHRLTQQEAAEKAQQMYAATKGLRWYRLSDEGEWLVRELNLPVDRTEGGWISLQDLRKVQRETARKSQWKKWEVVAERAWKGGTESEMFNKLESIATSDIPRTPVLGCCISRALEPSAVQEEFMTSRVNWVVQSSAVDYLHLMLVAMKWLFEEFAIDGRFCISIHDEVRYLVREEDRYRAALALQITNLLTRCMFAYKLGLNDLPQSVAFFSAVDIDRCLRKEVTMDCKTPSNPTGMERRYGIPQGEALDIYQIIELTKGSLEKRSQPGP
T1 sequence (Q9UHN1 26-485 partner): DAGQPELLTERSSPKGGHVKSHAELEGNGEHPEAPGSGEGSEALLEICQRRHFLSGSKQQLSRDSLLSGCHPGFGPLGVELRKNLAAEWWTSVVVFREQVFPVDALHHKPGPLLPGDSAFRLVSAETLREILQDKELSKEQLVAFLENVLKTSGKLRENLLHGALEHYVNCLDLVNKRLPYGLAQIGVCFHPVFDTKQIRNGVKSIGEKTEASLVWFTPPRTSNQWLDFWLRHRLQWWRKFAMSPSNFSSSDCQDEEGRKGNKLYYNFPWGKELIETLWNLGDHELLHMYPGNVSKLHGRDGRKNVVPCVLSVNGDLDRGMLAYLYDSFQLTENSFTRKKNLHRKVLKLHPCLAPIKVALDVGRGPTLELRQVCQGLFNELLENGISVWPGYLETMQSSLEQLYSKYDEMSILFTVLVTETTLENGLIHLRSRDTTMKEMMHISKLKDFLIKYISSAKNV
Method: (§1) HSV DNA polymerase was purified from H.Ep.-2 cells infected with HSV-1. Approximately 4 x 10^8 cells were infected with virus at a multiplicity of infection of 10 CCID50/cell. After a 1 hr adsorption period, the unattached virus was waxhed from the cells and the cultures were returned to the incubator at 37°C for another 8 hr. The cells were collected by centrifugation and mixed with a 0.3 M potassium phosphate buffer, pH 7.5, containing 0.3% Triton X-100 and 10% glycerol. The HSV DNA polymerase was purified approximately 288-fold from this crude extract, as described by Derse et al. (J. Biol. Chem. 257:10251, 1982). The specific activity of the HSV DNA polymerase was 4140 units/mg protein. […] HSV DNA polymerase activity was measured in 50 µl volumes containing 50 mM Tris, pH 8.0, 3 mM MgCl2, 0.5 mM dithiothreitol, 0.2 mg/ml bovine serum albumin, 0.2 M KCl, 12.5 µg/ml gapped DNA, 10 µM [^3H]dGTP (12 Ci/mmol), and 100 µM each of dATP, dCTP, and TTP. DNA polymerase α activity was measured in 50 µl volumes containing 50 mM Tris, pH 8.0, 1 mg/ml bovine serum albumin, 10 mM MgCl2, 1 mM dithiothreitol, 100 µg/ml gapped duplex DNA, 10 µM [^3H]dGTP (1 Ci/mmol), and 50 µM of each dATP, dCTP and TTP. DNA polymerase β and γ activities were measured as described for DNA polymerase α, except that the reactions included 100 mM KCl. […]

[2] = molecular target: T2, HSV DNA polymerase (Human herpesvirus 1, UniProt P04293); assay: Inhibition of [3H]dGTP incorporation into DNA by purified HSV DNA polymerase; type: biochemical, HSV-1; settings: for IC50: incorporation of 1 µM [3H]dGTP into DNA
T2 construct: HSV DNA polymerase was purified from H.Ep.-2 cells infected with HSV-1; made in house; host or cells: H.Ep.-2 cells infected with HSV-1
T2 sequence (P10226 whole entry): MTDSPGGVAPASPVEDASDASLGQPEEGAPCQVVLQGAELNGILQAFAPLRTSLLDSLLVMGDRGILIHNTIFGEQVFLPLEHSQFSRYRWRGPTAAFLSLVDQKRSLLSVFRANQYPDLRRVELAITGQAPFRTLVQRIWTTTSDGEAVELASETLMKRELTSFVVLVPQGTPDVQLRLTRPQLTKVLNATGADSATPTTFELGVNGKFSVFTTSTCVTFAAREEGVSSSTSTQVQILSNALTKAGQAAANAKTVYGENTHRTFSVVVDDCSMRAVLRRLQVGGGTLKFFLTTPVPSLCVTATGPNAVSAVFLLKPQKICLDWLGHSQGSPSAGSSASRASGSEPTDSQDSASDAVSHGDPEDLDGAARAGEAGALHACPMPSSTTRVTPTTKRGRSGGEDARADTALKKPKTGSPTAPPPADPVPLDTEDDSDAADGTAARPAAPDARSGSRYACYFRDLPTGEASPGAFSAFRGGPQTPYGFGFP
T2 sequence (P04293 whole entry): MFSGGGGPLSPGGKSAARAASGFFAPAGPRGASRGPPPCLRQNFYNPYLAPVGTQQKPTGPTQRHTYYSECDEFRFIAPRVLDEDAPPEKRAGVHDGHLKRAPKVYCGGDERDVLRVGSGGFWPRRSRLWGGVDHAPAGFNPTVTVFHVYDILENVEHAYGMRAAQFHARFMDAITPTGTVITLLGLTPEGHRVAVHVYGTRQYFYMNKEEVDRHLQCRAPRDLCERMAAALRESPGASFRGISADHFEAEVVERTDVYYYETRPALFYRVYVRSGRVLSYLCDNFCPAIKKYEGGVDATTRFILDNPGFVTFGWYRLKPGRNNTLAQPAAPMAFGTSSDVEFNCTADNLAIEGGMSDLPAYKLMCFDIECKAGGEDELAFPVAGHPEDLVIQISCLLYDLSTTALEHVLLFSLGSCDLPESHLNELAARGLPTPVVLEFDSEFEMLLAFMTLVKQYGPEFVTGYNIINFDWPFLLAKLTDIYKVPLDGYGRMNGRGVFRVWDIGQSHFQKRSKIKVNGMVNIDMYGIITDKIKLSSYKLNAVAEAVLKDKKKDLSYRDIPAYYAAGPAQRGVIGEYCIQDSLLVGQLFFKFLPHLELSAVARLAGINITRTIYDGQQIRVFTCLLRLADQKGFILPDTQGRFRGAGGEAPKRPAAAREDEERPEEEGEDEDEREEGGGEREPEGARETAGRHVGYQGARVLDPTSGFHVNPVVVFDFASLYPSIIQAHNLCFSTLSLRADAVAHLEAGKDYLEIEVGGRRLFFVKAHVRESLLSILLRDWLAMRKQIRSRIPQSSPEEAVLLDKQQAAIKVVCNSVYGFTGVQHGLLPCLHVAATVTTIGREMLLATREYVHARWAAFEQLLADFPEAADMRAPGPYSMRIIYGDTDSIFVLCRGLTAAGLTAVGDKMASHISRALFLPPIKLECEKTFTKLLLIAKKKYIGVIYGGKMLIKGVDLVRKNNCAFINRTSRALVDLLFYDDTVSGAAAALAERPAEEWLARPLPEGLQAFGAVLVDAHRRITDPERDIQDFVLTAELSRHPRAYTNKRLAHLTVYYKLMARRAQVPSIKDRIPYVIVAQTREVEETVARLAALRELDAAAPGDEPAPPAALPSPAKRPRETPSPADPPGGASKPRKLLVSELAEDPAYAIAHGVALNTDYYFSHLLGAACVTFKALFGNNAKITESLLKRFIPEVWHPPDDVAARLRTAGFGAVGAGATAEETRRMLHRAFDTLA
Method: (§2) HSV DNA polymerase was purified from H.Ep.-2 cells infected with HSV-1. Approximately 4 x 10^8 cells were infected with virus at a multiplicity of infection of 10 CCID50/cell. After a 1 hr adsorption period, the unattached virus was waxhed from the cells and the cultures were returned to the incubator at 37°C for another 8 hr. The cells were collected by centrifugation and mixed with a 0.3 M potassium phosphate buffer, pH 7.5, containing 0.3% Triton X-100 and 10% glycerol. The HSV DNA polymerase was purified approximately 288-fold from this crude extract, as described by Derse et al. (J. Biol. Chem. 257:10251, 1982). The specific activity of the HSV DNA polymerase was 4140 units/mg protein. Human DNA polymerases, a, β, and γ, were purified from 5.0 ml of packed K562 cells grown in cell culture as previously described (Parker et al., J. Biol. Chem. 266:1754, 1991). The specific activities of DNA polymerases α, β, and γ used in these studies were approximately 34, 1600, and 8 units/mg protein, respectively. One unit of enzyme activity is defined as the amount of enzyme needed to incorporate 1 nmol of [^3H]dGTP into acid-precipitable material per hour at 37°C, using gapped DNA as a template. HSV DNA polymerase activity was measured in 50 µl volumes containing 50 mM Tris, pH 8.0, 3 mM MgCl2, 0.5 mM dithiothreitol, 0.2 mg/ml bovine serum albumin, 0.2 M KCl, 12.5 µg/ml gapped DNA, 10 µM [^3H]dGTP (12 Ci/mmol), and 100 µM each of dATP, dCTP, and TTP. DNA polymerase α activity was measured in 50 µl volumes containing 50 mM Tris, pH 8.0, 1 mg/ml bovine serum albumin, 10 mM MgCl2, 1 mM dithiothreitol, 100 µg/ml gapped duplex DNA, 10 µM [^3H]dGTP (1 Ci/mmol), and 50 µM of each dATP, dCTP and TTP. DNA polymerase β and γ activities were measured as described for DNA polymerase α, except that the reactions included 100 mM KCl. After incubation for the desired time, the DNA in each sample was precipitated onto glass fiber filters using a 5% trichloroacetic acid solution containing 10 mM pyrophosphate. The filters were then washed three times with this solution followed by two washes with 95% ethanol, dried, and counted for radioactivity.
(§3) 2'CdG-TP was a potent competitive inhibitor of the incorporation of [^3H]dGTP into DNA by both the HSV DNA polymerase and the host DNA polymerase α (Fig. 9).
(§4) Under similar incubation conditions, the concentration of D-2'CdG-TP required to inhibit the incorporation of 1 µM [^3H]dGTP into the DNA by 50% was 2 µM with DNA polymerase a, but was 2200 and 300 µM for DNA polymerase β and γ, respectively (Table 4). […]

[3] = molecular target: T3, DNA polymerase α (Homo sapiens, UniProt P09884); assay: Inhibition of [3H]dGTP incorporation into DNA by host DNA polymerase α; type: biochemical; settings: for IC50: incorporation of 1 µM [3H]dGTP into DNA
T3 construct: Human DNA polymerases, a, β, and γ, were purified from 5.0 ml of packed K562 cells; endogenous in cells; host or cells: K562 cells
T3 sequence (P09884 whole entry): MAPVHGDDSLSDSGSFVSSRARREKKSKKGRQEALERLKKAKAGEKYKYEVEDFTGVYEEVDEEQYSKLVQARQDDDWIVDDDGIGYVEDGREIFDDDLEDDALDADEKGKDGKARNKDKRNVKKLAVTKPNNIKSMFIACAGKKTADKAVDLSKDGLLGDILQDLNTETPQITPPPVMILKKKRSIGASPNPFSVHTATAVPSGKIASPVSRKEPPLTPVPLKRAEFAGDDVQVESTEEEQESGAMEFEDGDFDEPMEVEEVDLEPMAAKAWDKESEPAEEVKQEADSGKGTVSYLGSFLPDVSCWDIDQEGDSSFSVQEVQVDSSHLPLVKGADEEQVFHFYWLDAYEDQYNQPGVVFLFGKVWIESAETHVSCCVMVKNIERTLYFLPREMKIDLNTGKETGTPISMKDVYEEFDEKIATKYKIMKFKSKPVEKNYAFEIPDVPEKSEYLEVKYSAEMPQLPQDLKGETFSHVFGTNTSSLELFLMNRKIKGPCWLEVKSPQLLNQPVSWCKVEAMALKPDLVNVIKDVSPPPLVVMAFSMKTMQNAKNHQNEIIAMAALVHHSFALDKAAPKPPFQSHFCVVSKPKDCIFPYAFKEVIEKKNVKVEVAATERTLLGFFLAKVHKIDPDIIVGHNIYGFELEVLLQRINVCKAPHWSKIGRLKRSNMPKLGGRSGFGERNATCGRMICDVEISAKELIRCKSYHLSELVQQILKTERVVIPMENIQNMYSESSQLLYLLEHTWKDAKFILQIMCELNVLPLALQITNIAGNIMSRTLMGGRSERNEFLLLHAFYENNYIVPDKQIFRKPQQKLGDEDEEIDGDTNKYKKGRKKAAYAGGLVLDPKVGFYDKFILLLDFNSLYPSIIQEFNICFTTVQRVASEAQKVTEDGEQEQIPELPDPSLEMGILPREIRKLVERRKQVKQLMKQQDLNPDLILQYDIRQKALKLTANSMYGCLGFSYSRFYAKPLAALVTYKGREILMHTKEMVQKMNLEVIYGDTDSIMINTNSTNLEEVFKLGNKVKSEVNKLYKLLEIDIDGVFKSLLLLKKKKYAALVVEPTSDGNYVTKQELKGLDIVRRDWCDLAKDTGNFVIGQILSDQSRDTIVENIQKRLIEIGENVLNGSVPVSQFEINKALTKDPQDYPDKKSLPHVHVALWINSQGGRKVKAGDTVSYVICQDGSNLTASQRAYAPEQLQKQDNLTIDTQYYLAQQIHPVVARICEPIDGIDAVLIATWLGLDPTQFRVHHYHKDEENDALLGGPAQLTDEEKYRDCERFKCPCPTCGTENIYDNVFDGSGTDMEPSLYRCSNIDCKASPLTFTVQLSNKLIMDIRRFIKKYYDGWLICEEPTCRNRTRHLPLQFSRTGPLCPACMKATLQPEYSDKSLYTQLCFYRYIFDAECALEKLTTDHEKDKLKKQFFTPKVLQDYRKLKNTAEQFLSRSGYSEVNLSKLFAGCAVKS
T3 sequence (Q14181 whole entry partner): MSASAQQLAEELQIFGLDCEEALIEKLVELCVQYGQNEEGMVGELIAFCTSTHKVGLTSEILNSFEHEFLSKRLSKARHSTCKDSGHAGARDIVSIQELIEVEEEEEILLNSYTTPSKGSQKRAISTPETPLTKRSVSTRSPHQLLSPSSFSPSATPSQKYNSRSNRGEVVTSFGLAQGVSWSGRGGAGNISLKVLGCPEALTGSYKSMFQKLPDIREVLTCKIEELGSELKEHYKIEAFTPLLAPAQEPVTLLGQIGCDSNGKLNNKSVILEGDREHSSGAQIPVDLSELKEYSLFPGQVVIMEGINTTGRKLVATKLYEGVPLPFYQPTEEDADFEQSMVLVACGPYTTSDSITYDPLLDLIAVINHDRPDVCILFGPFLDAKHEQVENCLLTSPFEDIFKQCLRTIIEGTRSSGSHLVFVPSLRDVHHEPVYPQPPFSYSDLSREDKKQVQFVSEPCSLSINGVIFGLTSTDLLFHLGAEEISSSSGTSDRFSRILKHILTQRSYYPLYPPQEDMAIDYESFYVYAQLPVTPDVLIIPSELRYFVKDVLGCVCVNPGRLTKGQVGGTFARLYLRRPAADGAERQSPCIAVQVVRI
T3 sequence (P49642 whole entry partner): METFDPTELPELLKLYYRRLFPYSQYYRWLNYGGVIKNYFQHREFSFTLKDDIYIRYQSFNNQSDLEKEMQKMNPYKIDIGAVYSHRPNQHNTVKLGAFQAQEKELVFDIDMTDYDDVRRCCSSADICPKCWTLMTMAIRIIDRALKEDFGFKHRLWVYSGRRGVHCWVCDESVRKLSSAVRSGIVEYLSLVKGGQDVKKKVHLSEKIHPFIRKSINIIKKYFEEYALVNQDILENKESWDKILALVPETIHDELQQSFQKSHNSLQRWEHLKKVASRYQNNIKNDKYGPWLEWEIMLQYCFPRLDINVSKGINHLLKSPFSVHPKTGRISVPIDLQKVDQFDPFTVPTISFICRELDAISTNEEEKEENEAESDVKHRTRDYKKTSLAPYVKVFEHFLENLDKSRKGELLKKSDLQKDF
T3 sequence (P49643 whole entry partner): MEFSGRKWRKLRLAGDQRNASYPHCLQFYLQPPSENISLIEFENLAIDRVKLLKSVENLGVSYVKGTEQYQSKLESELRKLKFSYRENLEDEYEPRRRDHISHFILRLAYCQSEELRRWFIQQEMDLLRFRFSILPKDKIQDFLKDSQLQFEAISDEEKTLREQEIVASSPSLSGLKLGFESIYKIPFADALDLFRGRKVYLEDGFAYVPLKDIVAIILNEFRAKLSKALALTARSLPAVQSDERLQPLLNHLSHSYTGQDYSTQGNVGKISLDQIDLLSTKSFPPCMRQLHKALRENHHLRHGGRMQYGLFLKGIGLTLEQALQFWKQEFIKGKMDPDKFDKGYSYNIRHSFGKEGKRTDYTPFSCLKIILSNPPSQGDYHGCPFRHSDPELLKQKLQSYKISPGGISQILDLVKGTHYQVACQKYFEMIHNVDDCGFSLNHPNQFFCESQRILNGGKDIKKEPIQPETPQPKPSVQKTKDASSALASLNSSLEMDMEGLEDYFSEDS
Method: as §2, §3, §4

[4] = molecular target: T4, DNA polymerase β (Homo sapiens, UniProt P06746); assay: Inhibition of [3H]dGTP incorporation into DNA by DNA polymerase β; type: biochemical; settings: incorporation of 1 µM [3H]dGTP into DNA
T4 construct: Human DNA polymerases, a, β, and γ, were purified from 5.0 ml of packed K562 cells; endogenous in cells; host or cells: K562 cells
Method: as §1

SMILES | IC50 [1] | Ki/Km ratio ([2]; Km of dGTP) | Ki ([2]; competitive with [3H]dGTP) | IC50 [2] | Ki/Km ratio ([3]; Km of dGTP) | Ki ([3]; competitive with [3H]dGTP) | IC50 [3] | IC50 [4]
Nc1nc2c(ncn2[C@@H]2C[C@H](COP(=O)(O)OP(=O)(O)OP(=O)(O)O)[C@@H](O)C2)c(=O)[nH]1 [D-2'CdG-TP] | 300 µM | approximately 1 | 0.35 µM | 1.5 µM | approximately 1 | 0.95 µM | 2 µM | 
Nc1nc2c(ncn2[C@H]2C[C@@H](COP(=O)(O)OP(=O)(O)OP(=O)(O)O)[C@H](O)C2)c(=O)[nH]1 [L-2'CdG-TP] | 215 µM |  |  | 460 µM |  |  | 470 µM | 1400 µM
